{"source": "patent US5726162A", "about": "(priority 1996, dated 1998)", "key": {"fungal mycelium": {"test_system": "fungal mycelium", "test": "organism not typed", "type": "cell-based", "conditions": "read-out: % growth inhibition"}, "[1]": {"test_system": "Magnaporthe grisea (Pyricularia oryzae)", "test": "whole plant or invertebrate", "type": "in vivo, Magnaporthe grisea (Pyricularia oryzae) on M201 rice plants", "conditions": "Pyricularia oryzae, 144 h, read-out: % Control RB"}, "[2]": {"test_system": "Thanatephorus cucumeris (Rhizoctonia solani)", "test": "In vivo test b) Rice Sheath Blight (RSB), 24 hour preapplication protectant, % control", "conditions": "protectant; for pest or weed control at 200 ppm: read-out: % Control RSB", "protocol": "Compounds were tested at 200 ppm as a twenty-four hour preapplication protectant test prior to inoculation.\nb) Rice Sheath Blight (RSB)\nThanatephorus cucumeris (Rhizoctonia solani) mycelia were grown for six days in potato dextrose broth in shake culture. Drained mycelial mats were blended with an approximately equal weight of rice flour and five parts water. This slurry was dispensed onto the soil surface of pots containing rice seedlings previously treated with experimental compounds. The plants were placed in a mist chamber at 25°-28° C. for 48 hours. Following two more days at 25° C. and 70-90% relative humidity the plants were evaluated for percent disease control compared to check plants."}, "Candida albicans": {"test_system": "Candida albicans", "test": "Activity against Candida albicans in microtiter plates, % control of growth", "type": "cell-based", "protocol": "The activity against Candida albicans was determined using the following test protocol.\nConidia and mycelium from the Candida albicans culture maintained on potato dextrose agar plates were lightly scraped off into yeast extract-dextrose broth (YDB) so that mostly conidia was used as inoculum. The conidial suspsension was strained through a double layer of cheesecloth to remove mycelial clumps. The inoculum mixture was placed in microtiter plates using a 12-tipped pipet. 175 microliters were placed in each well of the microliter plates and the plates were placed in the refrigerator overnight. There were two replications.\nThe compounds to be tested were dissolved in 1:1 acetone:methanol and 100 ppm of the compound solution were placed in a well of the prepared microtiter plates.\nThe microtiter plates were incubated for 7 days at room temperature after addition of the compounds. Percent control was visually estimated using a microtiter plate reading mirror. Readings were made at 1, 2, 3, and/or 7 days after treatment."}, "Pyricularia oryzae [3]": {"test_system": "Pyricularia oryzae", "type": "in vivo, Pyricularia oryzae on M-201 rice plants", "conditions": "protectant"}, "Septoria nodorum": {"test_system": "Septoria nodorum", "test": "Wheat Septoria preventative experiments (single fungicides and combinations)", "type": "in vivo, Septoria nodorum on Fielder wheat plants", "protocol": "The experiments below were performed using the relevant following procedures.\nExperimental compounds and commercial fungicides were tank mixed and mechanically sprayed at varying concentrations in a 1:1:2 mixture of acetone, methanol and water. Protective or preventive sprays were applied one day before spore inoculation. Curative or post-infection sprays were applied one day after spore inoculation. The spraying system utilized delivered a 200 ppm dose at the rate of 1458 liters per hectare. The following details were applicable for the specified diseases:\nFielder wheat plants were inoculated with Septoria nodorum conidia. The spore concentration was approximately 3,000,000 conidia per milliliter in water. An atomizer was used to apply twenty milliliters of inoculum to twenty plants per flat. The plants were placed in a humidity cabinet at 100% relative humidity for 72 hours and then placed in a greenhouse. Evaluations were made 10 days after inoculation.\n\"Disease control\" was recorded as percent control based on a comparison of the unsprayed, inoculated controls and the treated, inoculated plants."}, "Pyricularia oryzae [4]": {"test_system": "Pyricularia oryzae", "type": "in vivo, Pyricularia oryzae on M-201 rice plants", "conditions": "curative"}, "fungal inoculum": {"test_system": "fungal inoculum", "test": "organism not typed", "type": "cell-based", "conditions": "read-out: % growth inhibition"}, "[5]": {"conditions": "24 h, 1 day after treatment, read-out: % control of growth +1"}, "[6]": {"conditions": "48 h, 2 days after treatment, read-out: % control of growth +2"}, "[7]": {"conditions": "72 h, 3 days after treatment, read-out: % control of growth +3"}, "[8]": {"conditions": "168 h, 7 days after treatment, read-out: % control of growth +7"}}, "note": "Read-outs that look alike come from different tables or passages of the source."}
{"compound": "CCC#CCN1N=C(c2ccc(Cl)cc2)OCC1=O", "note": "[Compound 161, 2-(4-chlorophenyl)-4-(2-pentyn-1-yl)-4H,6H-1,3,4-oxadiazin-5-one]", "values": [{"measurement": "inhibition at 1 ppm", "setting": "fungal mycelium", "result": 75.9, "unit": "%"}, {"measurement": "pest or weed control at 200 ppm", "setting": "[1]", "result": 99, "unit": "%"}, {"measurement": "pest or weed control at 200 ppm", "setting": "[2]", "result": 0, "unit": "%"}, {"measurement": "inhibition of growth at 100 ppm", "setting": "Candida albicans; [5]", "result": 100, "unit": "%"}, {"measurement": "inhibition of growth at 100 ppm", "setting": "Candida albicans; [6]", "result": 100, "unit": "%"}, {"measurement": "inhibition of growth at 100 ppm", "setting": "Candida albicans; [7]", "result": 100, "unit": "%"}]}
{"compound": "C=CCOC1=NS(=O)(=O)c2ccccc21", "note": "[probenazole]", "values": [{"measurement": "% Disease Control, Observed", "setting": "Pyricularia oryzae [3]; 12 ppm alone", "result": 0, "unit": "%"}, {"measurement": "% Disease Control, Observed", "setting": "Pyricularia oryzae [3]; 50 ppm alone", "result": 0, "unit": "%"}, {"measurement": "% Disease Control, Observed", "setting": "Pyricularia oryzae [3]; 200 ppm alone", "result": 0, "unit": "%"}]}
{"compound": "O=C1CCc2cccc3c2N1CC3", "note": "[pyroquilon]", "values": [{"measurement": "% Disease Control, Observed", "setting": "Pyricularia oryzae [3]; 12 ppm alone", "result": 0, "unit": "%"}, {"measurement": "% Disease Control, Observed", "setting": "Pyricularia oryzae [3]; 50 ppm alone", "result": 0, "unit": "%"}, {"measurement": "% Disease Control, Observed", "setting": "Pyricularia oryzae [3]; 200 ppm alone", "result": 85, "unit": "%"}]}
{"compound": "C=CC#CCN1N=C2c3ccc(Cl)cc3CC2CC1=O", "note": "(stereo not drawn) [Compound 156, 7-chloro-2,4,4a,5-tetrahydro-2-(2-pentyn-4-ene-1-yl)-indeno [1,2-c]-pyridazin-3-one]", "values": [{"measurement": "inhibition at 1 ppm", "setting": "fungal mycelium", "result": 100, "unit": "%"}, {"measurement": "pest or weed control at 200 ppm", "setting": "[1]", "result": 100, "unit": "%"}, {"measurement": "pest or weed control at 200 ppm", "setting": "[2]", "result": 95, "unit": "%"}, {"measurement": "inhibition of growth at 100 ppm", "setting": "Candida albicans; [5]", "result": 100, "unit": "%"}, {"measurement": "inhibition of growth at 100 ppm", "setting": "Candida albicans; [6]", "result": 100, "unit": "%"}, {"measurement": "inhibition of growth at 100 ppm", "setting": "Candida albicans; [7]", "result": 100, "unit": "%"}]}
{"compound": "C=CC#CCn1nc(-c2ccc(Cl)c(F)c2)ccc1=O", "note": "[Compound 128]", "values": [{"measurement": "inhibition at 0.156 ppm", "setting": "fungal mycelium", "result": 100, "unit": "%"}, {"measurement": "pest or weed control at 200 ppm", "setting": "[1]", "result": 95, "unit": "%"}, {"measurement": "pest or weed control at 200 ppm", "setting": "[2]", "result": 0, "unit": "%"}, {"measurement": "inhibition of growth at 100 ppm", "setting": "Candida albicans; [5]", "result": 100, "unit": "%"}, {"measurement": "inhibition of growth at 100 ppm", "setting": "Candida albicans; [6]", "result": 100, "unit": "%"}, {"measurement": "inhibition of growth at 100 ppm", "setting": "Candida albicans; [7]", "result": 100, "unit": "%"}]}
{"compound": "CC(C)NC(=O)N1CC(=O)N(c2cc(Cl)cc(Cl)c2)C1=O", "note": "[iprodione, reference compound]", "values": [{"measurement": "% Disease Control, Observed", "setting": "Septoria nodorum; 12 ppm alone", "result": 0, "unit": "%"}, {"measurement": "% Disease Control, Observed", "setting": "Septoria nodorum; 50 ppm alone", "result": 0, "unit": "%"}, {"measurement": "% Disease Control, Observed", "setting": "Septoria nodorum; 200 ppm alone", "result": 50, "unit": "%"}]}
{"compound": "N#Cc1c(Cl)c(Cl)c(Cl)c(C#N)c1Cl", "note": "[chlorothalonil]", "values": [{"measurement": "% Disease Control, Observed", "setting": "Pyricularia oryzae [3]; 12 ppm alone", "result": 0, "unit": "%"}, {"measurement": "% Disease Control, Observed", "setting": "Pyricularia oryzae [3]; 50 ppm alone", "result": 0, "unit": "%"}, {"measurement": "% Disease Control, Observed", "setting": "Pyricularia oryzae [3]; 200 ppm alone", "result": 99, "unit": "%"}]}
{"compound": "C=CC#CCN1N=C(c2ccc(Cl)c(F)c2)CCC1=O", "note": "[Compound 100]", "values": [{"measurement": "inhibition at 0.16 ppm", "setting": "fungal mycelium", "result": 100, "unit": "%"}, {"measurement": "pest or weed control at 200 ppm", "setting": "[1]", "result": 100, "unit": "%"}, {"measurement": "pest or weed control at 200 ppm", "setting": "[2]", "result": 0, "unit": "%"}, {"measurement": "inhibition of growth at 100 ppm", "setting": "Candida albicans; [5]", "result": 100, "unit": "%"}, {"measurement": "inhibition of growth at 100 ppm", "setting": "Candida albicans; [6]", "result": 100, "unit": "%"}, {"measurement": "inhibition of growth at 100 ppm", "setting": "Candida albicans; [7]", "result": 100, "unit": "%"}]}
{"compound": "mancozeb [reference compound]", "values": [{"measurement": "% Disease Control, Observed", "setting": "Pyricularia oryzae [3]; 50 ppm alone", "result": 75, "unit": "%"}, {"measurement": "% Disease Control, Observed", "setting": "Pyricularia oryzae [3]; 200 ppm alone", "result": 99, "unit": "%"}, {"measurement": "% Disease Control, Observed", "setting": "Pyricularia oryzae [4]; 50 ppm alone", "result": 0, "unit": "%"}, {"measurement": "% Disease Control, Observed", "setting": "Pyricularia oryzae [4]; 200 ppm alone", "result": 0, "unit": "%"}]}
{"compound": "C=CC#CCn1nc(-c2ccc(Cl)cc2)ccc1=O", "note": "[Compound 119]", "values": [{"measurement": "inhibition at 5 ppm", "setting": "fungal inoculum", "result": 99.3, "unit": "%"}, {"measurement": "pest or weed control at 100 ppm", "setting": "[1]", "result": 95, "unit": "%"}, {"measurement": "pest or weed control at 100 ppm", "setting": "[2]; 100 ppm", "result": 0, "unit": "%"}, {"measurement": "inhibition of growth at 100 ppm", "setting": "Candida albicans; [5]", "result": 100, "unit": "%"}, {"measurement": "inhibition of growth at 100 ppm", "setting": "Candida albicans; [6]", "result": 100, "unit": "%"}, {"measurement": "inhibition of growth at 100 ppm", "setting": "Candida albicans; [7]", "result": 100, "unit": "%"}, {"measurement": "inhibition of growth at 100 ppm", "setting": "Candida albicans; [8]", "result": 100, "unit": "%"}]}
{"compound": "CC#CCN1N=C(c2ccc(Cl)cc2)CCC1=O", "note": "[Compound 1]", "values": [{"measurement": "inhibition at 5 ppm", "setting": "fungal inoculum", "result": 92.7, "unit": "%"}, {"measurement": "pest or weed control at 200 ppm", "setting": "[1]", "result": 90, "unit": "%"}, {"measurement": "pest or weed control at 200 ppm", "setting": "[2]", "result": 0, "unit": "%"}]}
{"compound": "CCC#CCN1N=C(c2ccc(Cl)cc2)CCC1=O", "note": "[Compound 12, 6-(4-chlorophenyl)-2-(2'-pentynyl)-4,5-dihydropyridazinone]", "values": [{"measurement": "inhibition at 1 ppm", "setting": "fungal inoculum", "result": 96, "unit": "%"}, {"measurement": "pest or weed control at 200 ppm", "setting": "[1]", "result": 99, "unit": "%"}, {"measurement": "pest or weed control at 200 ppm", "setting": "[2]", "result": 50, "unit": "%"}, {"measurement": "inhibition of growth at 100 ppm", "setting": "Candida albicans; [5]", "result": 100, "unit": "%"}, {"measurement": "inhibition of growth at 100 ppm", "setting": "Candida albicans; [6]", "result": 100, "unit": "%"}, {"measurement": "inhibition of growth at 100 ppm", "setting": "Candida albicans; [7]", "result": 100, "unit": "%"}, {"measurement": "inhibition of growth at 100 ppm", "setting": "Candida albicans; [8]", "result": 100, "unit": "%"}, {"measurement": "% Disease Control, Observed", "setting": "Pyricularia oryzae [3]; 12 ppm alone", "result": 0, "unit": "%"}, {"measurement": "% Disease Control, Observed", "setting": "Pyricularia oryzae [3]; 50 ppm alone", "result": 50, "unit": "%"}, {"measurement": "% Disease Control, Observed", "setting": "Pyricularia oryzae [3]; 200 ppm alone", "result": 50, "unit": "%"}]}
{"compound": "O=C1CCC(c2ccc(Cl)cc2)=NN1CC#Cc1ccccc1", "note": "[Compound 17]", "values": [{"measurement": "inhibition at 25 ppm", "setting": "fungal inoculum", "result": 91.9, "unit": "%"}, {"measurement": "pest or weed control at 200 ppm", "setting": "[1]", "result": 0, "unit": "%"}, {"measurement": "pest or weed control at 200 ppm", "setting": "[2]", "result": 80, "unit": "%"}]}
{"compound": "CC#CCN1N=C(c2ccc(C)cc2)CCC1=O", "note": "[Compound 18]", "values": [{"measurement": "inhibition at 5 ppm", "setting": "fungal inoculum", "result": 88.4, "unit": "%"}, {"measurement": "pest or weed control at 200 ppm", "setting": "[1]", "result": 0, "unit": "%"}, {"measurement": "pest or weed control at 200 ppm", "setting": "[2]", "result": 0, "unit": "%"}]}
